Among the data in ChEMBL document CHEMBL3045983, “Ajugatakasins A and B, New Diterpenoids fromAjuga decumbens, and Feeding Stimulative Activity of Related Neoclerodane Analogs toward the Turnip Sawfly” (1997) are Activity values, retold here.

In the first experiment the test system is Athalia rosae ruficornis. Put plainly: Induction of feeding in larvae of Athalia rosae ruficornis on leaves of Ajuga decumbens assessed as feeding response measured for 10 seconds relative to control. Also on record: concentration or dose not given beside the values. It counts as functional.
As to `CC[C@H](C)C(=O)O[C@@H](C[C@@]1(C)[C@H](C)C[C@H](OC(C)=O)[C@]2(COC(C)=O)[C@@H]1[C@H](OC(=O)[C@@H](C)CC)CC[C@]21CO1)C1=CC(=O)OC1` [AJUGATAKASIN B], the Activity came to 0.4%.
On the same count and under the same terms, the same measure for `C/C=C(\C)C(=O)O[C@@H]1CC[C@]2(CO2)[C@]2(COC(C)=O)[C@@H](OC(C)=O)C[C@@H](C)[C@](C)(C[C@H](OC(=O)[C@@H](C)CC)C3=CC(=O)OC3)[C@@H]12` [AJUGAMARIN G1]: 9.3%.
Still for that read-out and setting: the same measure for `C/C=C(\C)C(=O)O[C@@H]1CC[C@]2(CO2)[C@]2(COC(C)=O)[C@@H](OC(C)=O)C[C@@H](C)[C@](C)(C[C@H](O)C3=CC(=O)OC3)[C@@H]12` [AJUGAMARIN A1]: 46.3%; for `CC[C@H](C)C(=O)O[C@H]1[C@H](O)C[C@@H]2[C@@](C)([C@@H]3C[C@H]4C=CO[C@H]4O3)[C@H](C)C[C@H](OC(C)=O)[C@@]2(COC(C)=O)[C@@]12CO2` [CLERODENDRIN D]: 0.08%; for `C/C=C(\C)C(=O)O[C@@H](C[C@@]1(C)[C@H](C)C[C@H](OC(C)=O)[C@]2(COC(C)=O)[C@@H]1[C@H](OC(=O)[C@@H](C)CC)CC[C@]21CO1)C1=CC(=O)OC1` [AJUGAMARIN H1]: 7%.
The same measure, in the same setting: the result for `C/C=C(\C)C(=O)O[C@@H](C[C@@]1(C)[C@H](C)C[C@H](OC(C)=O)[C@]2(COC(C)=O)[C@@H]1[C@H](OC(=O)/C(C)=C/C)CC[C@]21CO1)C1=CC(=O)OC1` [AJUGATAKASIN A] reads 28.4%; that for `CCC(C)C(=O)O[C@@H]1CC[C@]2(CO2)[C@]2(COC(C)=O)[C@@H](OC(C)=O)C[C@@H](C)[C@](C)(C[C@H](O)C3=CC(=O)OC3)[C@@H]12` (stereo partly specified) [DIHYDROAJUGAMARIN], 8.6%.

The subject of the next experiment is Athalia rosae ruficornis. In words: Induction of feeding in larvae of Athalia rosae ruficornis on leaves of Ajuga decumbens assessed as feeding response at 10 ug/64 mm'2 of filter paper measured for 10 seconds. It is filed as functional.
Consider `CC[C@H](C)C(=O)O[C@@H](C[C@@]1(C)[C@H](C)C[C@H](OC(C)=O)[C@]2(COC(C)=O)[C@@H]1[C@H](OC(=O)[C@@H](C)CC)CC[C@]21CO1)C1=CC(=O)OC1` [AJUGATAKASIN B], for which the Activity was 0%.
Turning to `C/C=C(\C)C(=O)O[C@@H]1CC[C@]2(CO2)[C@]2(COC(C)=O)[C@@H](OC(C)=O)C[C@@H](C)[C@](C)(C[C@H](OC(=O)[C@@H](C)CC)C3=CC(=O)OC3)[C@@H]12` [AJUGAMARIN G1], the Activity stood at 0%.
On to `C/C=C(\C)C(=O)O[C@@H]1CC[C@]2(CO2)[C@]2(COC(C)=O)[C@@H](OC(C)=O)C[C@@H](C)[C@](C)(C[C@H](O)C3=CC(=O)OC3)[C@@H]12` [AJUGAMARIN A1], for which the Activity is 0%.
On to `CC[C@H](C)C(=O)O[C@H]1[C@H](O)C[C@@H]2[C@@](C)([C@@H]3C[C@H]4C=CO[C@H]4O3)[C@H](C)C[C@H](OC(C)=O)[C@@]2(COC(C)=O)[C@@]12CO2` [CLERODENDRIN D], for which the Activity is 100%.
On the same count and under the same terms, the result for `C/C=C(\C)C(=O)O[C@@H](C[C@@]1(C)[C@H](C)C[C@H](OC(C)=O)[C@]2(COC(C)=O)[C@@H]1[C@H](OC(=O)[C@@H](C)CC)CC[C@]21CO1)C1=CC(=O)OC1` [AJUGAMARIN H1] reads 0%; that for `C/C=C(\C)C(=O)O[C@@H](C[C@@]1(C)[C@H](C)C[C@H](OC(C)=O)[C@]2(COC(C)=O)[C@@H]1[C@H](OC(=O)/C(C)=C/C)CC[C@]21CO1)C1=CC(=O)OC1` [AJUGATAKASIN A], 0%.
For the compound `CCC(C)C(=O)O[C@@H]1CC[C@]2(CO2)[C@]2(COC(C)=O)[C@@H](OC(C)=O)C[C@@H](C)[C@](C)(C[C@H](O)C3=CC(=O)OC3)[C@@H]12` (stereo partly specified) [DIHYDROAJUGAMARIN], the Activity is on record as 0%.

In the next experiment the test system is Athalia rosae ruficornis. Put plainly: Induction of feeding in larvae of Athalia rosae ruficornis on leaves of Ajuga decumbens assessed as feeding response at 0.1 ug/64 mm'2 of filter paper measured for 10 seconds. It is filed as functional.
Consider `CC[C@H](C)C(=O)O[C@@H](C[C@@]1(C)[C@H](C)C[C@H](OC(C)=O)[C@]2(COC(C)=O)[C@@H]1[C@H](OC(=O)[C@@H](C)CC)CC[C@]21CO1)C1=CC(=O)OC1` [AJUGATAKASIN B], for which the Activity came to 0%.
Turning to `C/C=C(\C)C(=O)O[C@@H]1CC[C@]2(CO2)[C@]2(COC(C)=O)[C@@H](OC(C)=O)C[C@@H](C)[C@](C)(C[C@H](OC(=O)[C@@H](C)CC)C3=CC(=O)OC3)[C@@H]12` [AJUGAMARIN G1], the Activity was found to be 0%.
On the same count and under the same terms, the result for `C/C=C(\C)C(=O)O[C@@H]1CC[C@]2(CO2)[C@]2(COC(C)=O)[C@@H](OC(C)=O)C[C@@H](C)[C@](C)(C[C@H](O)C3=CC(=O)OC3)[C@@H]12` [AJUGAMARIN A1] reads 0%.
Same read-out and setting: the result for `CC[C@H](C)C(=O)O[C@H]1[C@H](O)C[C@@H]2[C@@](C)([C@@H]3C[C@H]4C=CO[C@H]4O3)[C@H](C)C[C@H](OC(C)=O)[C@@]2(COC(C)=O)[C@@]12CO2` [CLERODENDRIN D] reads 88%.
Same read-out and setting: the result for `C/C=C(\C)C(=O)O[C@@H](C[C@@]1(C)[C@H](C)C[C@H](OC(C)=O)[C@]2(COC(C)=O)[C@@H]1[C@H](OC(=O)[C@@H](C)CC)CC[C@]21CO1)C1=CC(=O)OC1` [AJUGAMARIN H1] reads 0%; that for `C/C=C(\C)C(=O)O[C@@H](C[C@@]1(C)[C@H](C)C[C@H](OC(C)=O)[C@]2(COC(C)=O)[C@@H]1[C@H](OC(=O)/C(C)=C/C)CC[C@]21CO1)C1=CC(=O)OC1` [AJUGATAKASIN A], 0%.
Take `CCC(C)C(=O)O[C@@H]1CC[C@]2(CO2)[C@]2(COC(C)=O)[C@@H](OC(C)=O)C[C@@H](C)[C@](C)(C[C@H](O)C3=CC(=O)OC3)[C@@H]12` (stereo partly specified) [DIHYDROAJUGAMARIN]: the Activity was found to be 0%.
